Reference: BindingDB's records for doi:10.1080/14756360903179484 (University of Karachi, 2010)

Target: T1, Seed linoleate 13S-lipoxygenase-1 (Glycine max, UniProt P08170)
T1 sequence (P08170 whole entry): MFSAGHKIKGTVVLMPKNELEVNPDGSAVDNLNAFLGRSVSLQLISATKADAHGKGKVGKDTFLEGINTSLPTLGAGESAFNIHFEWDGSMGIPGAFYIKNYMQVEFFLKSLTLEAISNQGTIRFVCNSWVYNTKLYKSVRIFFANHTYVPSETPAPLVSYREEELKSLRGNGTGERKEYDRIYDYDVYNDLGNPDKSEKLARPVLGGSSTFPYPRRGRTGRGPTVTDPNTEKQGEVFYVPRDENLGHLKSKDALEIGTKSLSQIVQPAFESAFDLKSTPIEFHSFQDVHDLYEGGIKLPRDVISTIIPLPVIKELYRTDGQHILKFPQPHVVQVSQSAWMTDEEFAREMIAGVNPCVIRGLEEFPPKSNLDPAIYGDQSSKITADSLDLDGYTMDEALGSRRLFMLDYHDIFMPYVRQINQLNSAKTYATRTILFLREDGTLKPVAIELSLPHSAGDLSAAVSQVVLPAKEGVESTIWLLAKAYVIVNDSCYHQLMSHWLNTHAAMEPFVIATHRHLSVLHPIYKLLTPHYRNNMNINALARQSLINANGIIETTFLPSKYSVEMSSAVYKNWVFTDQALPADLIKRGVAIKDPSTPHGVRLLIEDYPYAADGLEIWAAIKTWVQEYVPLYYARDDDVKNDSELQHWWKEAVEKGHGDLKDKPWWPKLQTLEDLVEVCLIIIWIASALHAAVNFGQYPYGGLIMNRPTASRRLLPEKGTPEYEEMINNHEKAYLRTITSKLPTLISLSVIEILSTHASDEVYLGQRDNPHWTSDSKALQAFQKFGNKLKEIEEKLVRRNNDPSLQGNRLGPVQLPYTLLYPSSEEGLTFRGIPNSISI
Test: Lipoxygenase Inhibition Assay
Settings: pH 8; 25 °C
Description: A mixture of test compound (10 μL; 1 mM) in MeOH, type-1B lipoxygenase (EC 1.13.11.12; from soyabean) (20 μL; 70 units) in 0.1 M aqueous phosphate buffer (pH 8.0) in a total volume of 160 μL was incubated for 10 min at 25°C. Then the reaction was initiated by the addition of a solution of linoleic acid as substrate (10 μL; 20 μM), resulting in the formation of (9Z,11E,13S)-13-hydroperoxyoctadeca-9,11-dienoate. The change in UV absorbance at 234 nm was followed over a period of 6 min. All reactions were performed in triplicate, and analyzed with a 96-well plate reader (SpectraMax Plus 384; Molecular Devices).

| SMILES | IC50 [µM] |
| --- | --- |
| COc1ccc(-c2coc3cc(O)cc(O)c3c2=O)cc1 [5,7-dihydroxy-3-(4-methoxyphenyl)-4H-chromen-4-one] | 100 |
| COc1cc(-c2coc3cc(O)c(O)cc3c2=O)ccc1O [Conferin (1)] | 55.2 |
